Assay results published in patent US9365522B2, “Pyrazole amide derivative” (AMGEN INC., priority 2015, dated 2016).

Target: T1, human RORγ-LBD (Homo sapiens, UniProt P51449)
T1 construct: made in house; host or cells: E. coli (BL-21)
T1 sequence (P51449 262-518): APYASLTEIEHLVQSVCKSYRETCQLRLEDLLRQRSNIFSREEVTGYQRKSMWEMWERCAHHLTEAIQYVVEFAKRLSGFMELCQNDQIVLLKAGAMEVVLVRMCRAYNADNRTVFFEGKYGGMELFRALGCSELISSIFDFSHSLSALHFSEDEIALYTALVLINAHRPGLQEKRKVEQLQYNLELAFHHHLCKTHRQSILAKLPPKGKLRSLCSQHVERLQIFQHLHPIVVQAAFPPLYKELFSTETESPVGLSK
Assay: ROR gamma coactivator peptide recruitment Alphascreen assay (RORγ-LBD binding to GRIP1 coactivator peptide)
Assay type: biochemical
Conditions: 5 nM human RORγ-LBD, 30 nM 7-β-hydroxycholesterol, 50 nM biotinylated GRIP1 coactivator peptide, overnight incubation at room temperature; read-out: result (pIC50, RORγ coactivator peptide recruitment Alphascreen assay) (converted)
How it was run: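 Alphascreen proximity read-out after overnight room-temperature incubation, yielding pIC50 from 1-in-2 compound series (2.5% DMSO final). Mixture: 50 nM biotin-GRIP1 peptide, 30 nM 7-β-hydroxycholesterol agonist, 5 nM recombinant 6×His:Flag human RORγ-LBD (aa 262-518), 50 mM HEPES pH 7.4.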

| SMILES | IC50 [nM] |
| --- | --- |
| Cc1cc(Cl)c(C(=O)CN(CC2CCC(C)(C)CC2)C(=O)c2cnn([C@H]3CC[C@](C)(C(=O)O)CC3)c2C(F)(F)F)c(Cl)n1 [Example 835, trans-4-(4-((2-(2,4-dichloro-6-methyl-3-pyridinyl)-2-oxoethyl)((4,4-dimethylcyclohexyl)methyl)carbamoyl)-5-(trifluoromethyl)-1H-pyrazol-1-yl)-1-methylcyclohexanecarboxylic acid] | 251 |
| CC1(C)CC[C@@H](CN(CC(=O)c2c(Cl)cccc2Cl)C(=O)c2cnn([C@H]3CC[C@](C)(C(=O)O)CC3)c2C(F)(F)F)O1 [Example 838, trans-4-(4-((2-(2,6-dichlorophenyl)-2-oxoethyl)(((2S)-5,5-dimethyltetrahydro-2-furanyl)methyl)carbamoyl)-5-(trifluoromethyl)-1H-pyrazol-1-yl)-1-methylcyclohexanecarboxylic acid] | 13.8 |
| C[C@]1(C(=O)O)CC[C@H](n2ncc(C(=O)N(C[C@H](O)c3c(Cl)cncc3Cl)CC3(F)CC3)c2C(F)(F)F)CC1 [Example 840, trans-4-(4-(((2R)-2-(3,5-dichloro-4-pyridinyl)-2-hydroxyethyl)((1-fluorocyclopropyl)methyl)carbamoyl)-5-(trifluoromethyl)-1H-pyrazol-1-yl)-1-methylcyclohexanecarboxylic acid] | 240 |
| CC(C)(C)CN(CC(=O)c1c(Cl)cncc1Cl)C(=O)c1cnn([C@H]2CC[C@@H](CS(C)(=O)=O)CC2)c1C(F)(F)F [Example 841, N-(2-(3,5-dichloro-4-pyridinyl)-2-oxoethyl)-N-(2,2-dimethylpropyl)-1-(cis-4-((methylsulfonyl)methyl)cyclohexyl)-5-(trifluoromethyl)-1H-pyrazole-4-carboxamide] | 195 |
| C[C@@H]1C[C@@H](n2ncc(C(=O)N(CC(=O)c3c(Cl)ccc(F)c3Cl)[C@H]3C[C@@H]4[C@H](C3)C4(C)C)c2C(F)(F)F)CC[C@@H]1C(=O)O [Example 845, (1S,2R,4S)-4-(4-((2-(2,6-dichloro-3-fluorophenyl)-2-oxoethyl)((1R,3r,5S)-6,6-dimethylbicyclo[3.1.0]hexan-3-yl)carbamoyl)-5-(trifluoromethyl)-1H-pyrazol-1-yl)-2-methylcyclohexanecarboxylic acid] | 1.45 |
| CC1(C)[C@@H]2C[C@H](N(CC(=O)c3c(Cl)cccc3Cl)C(=O)c3cnn([C@H]4C[C@@H](CC(=O)O)C4)c3C(F)(F)F)C[C@@H]21 [Example 846, (cis-3-(4-((2-(2,6-dichlorophenyl)-2-oxoethyl)((1R,3r,5S)-6,6-dimethylbicyclo[3.1.0]hex-3-yl)carbamoyl)-5-(trifluoromethyl)-1H-pyrazol-1-yl)cyclobutyl)acetic acid] | 2.4 |
| CC(C)(F)CN(CC(=O)c1c(Cl)cncc1Cl)C(=O)c1cnn([C@H]2C[C@@]3(C[C@H](C(=O)O)C3)C2)c1C(F)(F)F (stereo partly drawn) [Example 847, (4s)-6-(4-((2-(3,5-dichloro-4-pyridinyl)-2-oxoethyl)(2-fluoro-2-methylpropyl)carbamoyl)-5-(trifluoromethyl)-1H-pyrazol-1-yl)spiro[3.3]heptane-2-carboxylic acid] | 21.9 |
| C[C@@H]1C[C@@H](n2ncc(C(=O)N(CC(=O)c3c(Cl)cccc3Cl)[C@H]3CCC34CCC4)c2C(F)(F)F)CC[C@@H]1C(=O)O [Example 848, (1S,2R,4S)-4-(4-((2-(2,6-dichlorophenyl)-2-oxoethyl)((1S)-spiro[3.3]hept-1-yl)carbamoyl)-5-(trifluoromethyl)-1H-pyrazol-1-yl)-2-methylcyclohexanecarboxylic acid] | 1.32 |
| C[C@@H]1C[C@@H](n2ncc(C(=O)N(CC(=O)c3c(Cl)cccc3Cl)[C@@H]3CCC34CCC4)c2C(F)(F)F)CC[C@@H]1C(=O)O [Example 849, (1S,2R,4S)-4-(4-((2-(2,6-dichlorophenyl)-2-oxoethyl)((1R)-spiro[3.3]hept-1-yl)carbamoyl)-5-(trifluoromethyl)-1H-pyrazol-1-yl)-2-methylcyclohexanecarboxylic acid] | 8.71 |
| C[C@]1(C(=O)O)CC[C@H](n2ncc(C(=O)N(CC(=O)c3c(Cl)cncc3Cl)C[C@]34CC[C@H](CC3)O4)c2C(F)(F)F)CC1 [Example 853, trans-4-(4-((2-(3,5-dichloro-4-pyridinyl)-2-oxoethyl)((1s,4s)-7-oxabicyclo[221]hept-1-ylmethyl)carbamoyl)-5-(trifluoromethyl)-1H-pyrazol-1-yl)-1-methylcyclohex anecarboxylic acid] | 17 |
| C[C@H]1C[C@@](C)(C(=O)O)CC[C@H]1n1ncc(C(=O)N(CC(=O)c2c(Cl)cncc2Cl)CC(C)(C)C)c1C(F)(F)F [Example 856, (1S,3S,4R)-4-(4-((2-(3,5-dichloro-4-pyridinyl)-2-oxoethyl)(2,2-dimethylpropyl)carbamoyl)-5-(trifluoromethyl)-1H-pyrazol-1-yl)-1,3-dimethylcyclohexanecarboxylic acid] | 67.6 |
| CC1(C)[C@@H]2C[C@H](N(CC(=O)c3c(Cl)cccc3Cl)C(=O)c3cnn([C@H]4C[C@@H](CC(=O)O)C4)c3C(F)(F)F)C[C@@H]21 [Example 859, (cis-3-(4-((2-(2,6-dichlorophenyl)-2-oxoethyl)((1R,3r,5S)-6,6-dimethylbicyclo[3.1.0]hex-3-yl)carbamoyl)-5-(trifluoromethyl)-1H-pyrazol-1-yl)cyclobutyl)acetic acid] | 6.03 |
| CC(C)(C)CN(CC(=O)c1c(Cl)cncc1Cl)C(=O)c1cnn([C@H]2CC[C@]3(CC2)C[C@@H]3C(=O)O)c1C(F)(F)F [Example 860, (1R,3r,6R)-6-(4-((2-(3,5-dichloro-4-pyridinyl)-2-oxoethyl)(2,2-dimethylpropyl)carbamoyl)-5-(trifluoromethyl)-1H-pyrazol-1-yl)spiro[2.5]octane-1-carboxylic acid] | 11.5 |

More lines, now with the values ahead:

| IC50 [nM] | SMILES |
| --- | --- |
| 30.9 | CC(C)(C)CN(CC(=O)c1c(Cl)cncc1Cl)C(=O)c1cnn([C@H]2C[C@]3(C[C@H](C(=O)O)C3)C2)c1C(F)(F)F (stereo partly drawn) [Example 836, (4R/S)-6-(4-((2-(3,5-dichloro-4-pyridinyl)-2-oxoethyl)(2,2-dimethylpropyl)carbamoyl)-5-(trifluoromethyl)-1H-pyrazol-1-yl)spiro[3.3]heptane-2-carboxylic acid] |
| 7.24 | CC1(C)CC[C@H](CN(CC(=O)c2c(Cl)cccc2Cl)C(=O)c2cnn([C@H]3CC[C@](C)(C(=O)O)CC3)c2C(F)(F)F)O1 [Example 839, trans-4-(4-((2-(2,6-dichlorophenyl)-2-oxoethyl)(((2S)-5,5-dimethyltetrahydro-2-furanyl)methyl)carbamoyl)-5-(trifluoromethyl)-1H-pyrazol-1-yl)-1-methylcyclohexanecarboxylic acid] |
| 30.2 | COC1(CN(CC(=O)c2c(Cl)cncc2Cl)C(=O)c2cnn([C@H]3CC[C@](C)(C(=O)O)CC3)c2C(F)(F)F)CC1 [Example 844, trans-4-(4-((2-(3,5-dichloro-4-pyridinyl)-2-oxoethyl)((1-methoxycyclopropyl)methyl)carbamoyl)-5-(trifluoromethyl)-1H-pyrazol-1-yl)-1-methylcyclohexanecarboxylic acid] |
| 12.9 | CCOC(C)(C)CN(CC(=O)c1c(Cl)cncc1Cl)C(=O)c1cnn([C@H]2CC[C@](C)(C(=O)O)CC2)c1C(F)(F)F [Example 850, trans-4-(4-((2-(3,5-dichloro-4-pyridinyl)-2-oxoethyl)(2-ethoxy-2-methylpropyl)carbamoyl)-5-(trifluoromethyl)-1H-pyrazol-1-yl)-1-methylcyclohexanecarboxylic acid] |
| 891 | C[C@@H]1C[C@@H](n2ncc(C(=O)N(CC(=O)c3c(Cl)cncc3Cl)CC3CCC4(CC3)CC4)c2C(F)(F)F)CC[C@@H]1C(=O)O [Example 852, (1S,2R,4S)-4-(4-((2-(3,5-dichloro-4-pyridinyl)-2-oxoethyl)(spiro[2.5]oct-6-ylmethyl)carbamoyl)-5-(trifluoromethyl)-1H-pyrazol-1-yl)-2-methylcyclohexanecarboxylic acid] |
| 4.68 | C[C@]1(C(=O)O)CC[C@H](n2ncc(C(=O)N(CC(=O)c3c(Cl)cncc3Cl)CC34CC(C3)C4)c2C(F)(F)F)CC1 [Example 854, trans-4-(4-((bicyclo[1.1.1]pent-1-ylmethyl)(2-(3,5-dichloro-4-pyridinyl)-2-oxoethyl)carbamoyl)-5-(trifluoromethyl)-1H-pyrazol-1-yl)-1-methylcyclohexanecarboxylic acid] |
| 33.9 | C[C@@H]1C[C@](C)(C(=O)O)CC[C@@H]1n1ncc(C(=O)N(CC(=O)c2c(Cl)cncc2Cl)CC(C)(C)C)c1C(F)(F)F [Example 857, (1R,3R,4S)-4-(4-((2-(3,5-dichloro-4-pyridinyl)-2-oxoethyl)(2,2-dimethylpropyl)carbamoyl)-5-(trifluoromethyl)-1H-pyrazol-1-yl)-1,3-dimethylcyclohexanecarboxylic acid] |
| 38 | C[C@@H]1C[C@H](n2ncc(C(=O)N(CC(=O)c3c(Cl)cncc3Cl)CC(C)(C)C)c2C(F)(F)F)CC[C@]1(C)C(=O)O [Example 862, (1S,3S,4R)-4-(4-((2-(3,5-dichloro-4-pyridinyl)-2-oxoethyl)(2,2-dimethylpropyl)carbamoyl)-5-(trifluoromethyl)-1H-pyrazol-1-yl)-1,2-dimethylcyclohexanecarboxylic acid] |
